According to publication PMC3261141, “Largazole and Its Derivatives Selectively Inhibit Ubiquitin Activating Enzyme (E1)” (PLoS ONE, 2012):

Assays:
[1] = molecular target: T1, ubiquitin-activating enzyme E1 (UBA1) (Homo sapiens, UniProt P22314); experiment: E1-ubiquitin thioester gel assay with fluorescein-ubiquitin; type: biochemical
T1 construct: recombinant human UBA1, GST tag removed by thrombin
T1 sequence (P22314 2-1058): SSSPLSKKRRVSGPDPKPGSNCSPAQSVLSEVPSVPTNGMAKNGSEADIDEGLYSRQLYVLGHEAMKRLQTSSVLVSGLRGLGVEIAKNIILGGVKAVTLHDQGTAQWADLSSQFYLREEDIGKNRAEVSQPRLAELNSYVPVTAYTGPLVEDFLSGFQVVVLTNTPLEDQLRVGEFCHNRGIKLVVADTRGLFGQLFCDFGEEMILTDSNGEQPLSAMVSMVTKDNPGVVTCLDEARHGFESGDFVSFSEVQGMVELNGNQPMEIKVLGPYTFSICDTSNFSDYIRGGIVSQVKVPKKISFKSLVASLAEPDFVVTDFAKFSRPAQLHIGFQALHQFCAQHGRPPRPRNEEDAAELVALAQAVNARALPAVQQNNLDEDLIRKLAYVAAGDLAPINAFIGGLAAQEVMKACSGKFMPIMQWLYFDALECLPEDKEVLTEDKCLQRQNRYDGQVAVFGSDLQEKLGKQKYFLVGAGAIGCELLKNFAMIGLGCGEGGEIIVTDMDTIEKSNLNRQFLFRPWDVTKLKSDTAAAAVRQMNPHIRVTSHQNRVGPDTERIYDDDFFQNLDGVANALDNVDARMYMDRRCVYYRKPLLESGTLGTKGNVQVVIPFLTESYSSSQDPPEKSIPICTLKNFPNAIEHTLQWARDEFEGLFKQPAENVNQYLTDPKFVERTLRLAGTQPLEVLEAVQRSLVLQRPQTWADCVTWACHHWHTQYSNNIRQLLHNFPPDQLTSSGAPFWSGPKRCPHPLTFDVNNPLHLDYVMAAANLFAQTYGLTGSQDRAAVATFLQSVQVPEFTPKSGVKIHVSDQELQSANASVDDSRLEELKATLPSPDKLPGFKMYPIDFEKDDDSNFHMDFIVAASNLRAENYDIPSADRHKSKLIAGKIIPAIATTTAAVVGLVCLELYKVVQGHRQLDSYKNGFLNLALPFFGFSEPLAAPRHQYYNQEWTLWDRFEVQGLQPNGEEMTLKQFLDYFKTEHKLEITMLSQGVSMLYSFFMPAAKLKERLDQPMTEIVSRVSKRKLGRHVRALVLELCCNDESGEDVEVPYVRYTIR

[2] = molecular target: T1, ubiquitin-activating enzyme E1 (UBA1); experiment: thioester gel assay; PPi:ATP and AMP:ATP exchange assays; type: biochemical

Compound	IC50 [1] [µM]	IC50 [2] [µM]
CCCCCCCC(=O)OCC/C=C/[C@@H]1CC(=O)NCc2nc(cs2)C2=N[C@@](C)(CS2)C(=O)N[C@@H](C(C)C)C(=O)O1 [E, Largazole ester]	~25	
CCCCCCCC(=O)CCC/C=C/[C@@H]1CC(=O)NCc2nc(cs2)C2=N[C@@](C)(CS2)C(=O)N[C@@H](C(C)C)C(=O)O1 [K, Largazole ketone]		~30
CCCCCCCC(=O)SCC/C=C/[C@@H]1CC(=O)NCc2nc(cs2)C2=N[C@@](C)(CS2)C(=O)N[C@@H](C(C)C)C(=O)O1 [L, Largazole]	~29	
